Calls of active or inactive are those of the source. For most assays here, no stated cut-off is given here; in the data, actives have a measured EC50 and inactives only a lower limit.
What was measured:
[1] = molecular target: T1, Heat shock factor protein 1 (Mus musculus, UniProt P38532); experiment: HSF1 potentiators in luciferase reporter cells, confirmation, cell-based, NIH3T3, luminescence, dose retest (AID 435004); format: functional;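 further: stress induced by proteasome inhibitor MG132 added 30 min after compound; luciferase reporter driven by HSF1 response element in NIH3T3 cells; actives raise luminescence as potentiators of the MG132 stress response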
T1 sequence (P38532 whole entry): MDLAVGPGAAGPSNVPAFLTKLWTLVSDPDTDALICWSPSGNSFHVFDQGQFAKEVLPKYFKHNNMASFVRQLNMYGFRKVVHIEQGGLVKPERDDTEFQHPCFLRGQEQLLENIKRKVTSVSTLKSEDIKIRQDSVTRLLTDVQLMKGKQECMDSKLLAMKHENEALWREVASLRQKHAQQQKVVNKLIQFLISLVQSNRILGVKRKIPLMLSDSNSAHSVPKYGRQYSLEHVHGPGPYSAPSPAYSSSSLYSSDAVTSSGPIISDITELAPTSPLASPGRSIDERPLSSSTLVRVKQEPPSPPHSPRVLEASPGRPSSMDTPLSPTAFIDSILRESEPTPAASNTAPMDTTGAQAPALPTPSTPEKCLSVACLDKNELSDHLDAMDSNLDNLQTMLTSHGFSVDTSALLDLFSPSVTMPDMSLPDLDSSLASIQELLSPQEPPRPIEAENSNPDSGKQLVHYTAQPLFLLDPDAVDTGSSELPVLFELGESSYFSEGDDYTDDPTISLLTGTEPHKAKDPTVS

[2] = molecular target: T2, Corticotropin-releasing factor receptor 2/Corticotropin-releasing factor-binding protein (Homo sapiens, UniProt P24387+Q13324); experiment: Dose Response confirmation of uHTS hits for small molecule antagonists of the CRF-binding protein and CRF-R2 receptor complex.; format: functional; conditions: read-out: IC50_Mean
T2 sequence (Q13324 whole entry): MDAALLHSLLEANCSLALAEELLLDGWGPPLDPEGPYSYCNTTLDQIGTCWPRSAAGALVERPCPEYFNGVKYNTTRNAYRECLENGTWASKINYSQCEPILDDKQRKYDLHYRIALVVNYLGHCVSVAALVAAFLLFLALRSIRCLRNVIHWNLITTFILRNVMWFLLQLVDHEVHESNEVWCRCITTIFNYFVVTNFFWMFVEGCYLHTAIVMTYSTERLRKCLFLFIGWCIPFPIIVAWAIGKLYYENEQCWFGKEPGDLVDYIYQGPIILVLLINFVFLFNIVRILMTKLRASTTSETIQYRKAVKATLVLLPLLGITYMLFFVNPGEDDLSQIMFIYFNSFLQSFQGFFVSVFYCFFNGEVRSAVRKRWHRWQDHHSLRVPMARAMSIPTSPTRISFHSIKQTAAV
T2 sequence (P24387 whole entry): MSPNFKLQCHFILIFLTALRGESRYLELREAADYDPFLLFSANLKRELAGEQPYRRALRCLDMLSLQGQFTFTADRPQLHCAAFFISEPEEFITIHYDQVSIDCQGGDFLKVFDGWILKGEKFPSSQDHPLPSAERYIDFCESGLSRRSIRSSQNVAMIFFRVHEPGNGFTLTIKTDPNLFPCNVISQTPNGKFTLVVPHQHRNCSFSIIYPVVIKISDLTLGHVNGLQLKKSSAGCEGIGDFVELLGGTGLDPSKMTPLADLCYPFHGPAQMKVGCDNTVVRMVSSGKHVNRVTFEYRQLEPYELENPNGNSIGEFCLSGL

[3] = molecular target: T2, Corticotropin-releasing factor receptor 2/Corticotropin-releasing factor-binding protein; experiment: activators of CRF receptor 2 with binding protein – uHTS hits, confirmation (AID 602473); format: functional; conditions: read-out: EC50_Mean
[4] = molecular target: T3, Rac GTPase-activating protein 1 (Homo sapiens, UniProt Q9H0H5); experiment: MgcRacGAP GTPase-activating activity inhibitors, confirmation, biochemical, ADP Hunter fluorescence, primary and confirmatory (AID 624330); format: functional
T3 sequence (Q9H0H5 whole entry): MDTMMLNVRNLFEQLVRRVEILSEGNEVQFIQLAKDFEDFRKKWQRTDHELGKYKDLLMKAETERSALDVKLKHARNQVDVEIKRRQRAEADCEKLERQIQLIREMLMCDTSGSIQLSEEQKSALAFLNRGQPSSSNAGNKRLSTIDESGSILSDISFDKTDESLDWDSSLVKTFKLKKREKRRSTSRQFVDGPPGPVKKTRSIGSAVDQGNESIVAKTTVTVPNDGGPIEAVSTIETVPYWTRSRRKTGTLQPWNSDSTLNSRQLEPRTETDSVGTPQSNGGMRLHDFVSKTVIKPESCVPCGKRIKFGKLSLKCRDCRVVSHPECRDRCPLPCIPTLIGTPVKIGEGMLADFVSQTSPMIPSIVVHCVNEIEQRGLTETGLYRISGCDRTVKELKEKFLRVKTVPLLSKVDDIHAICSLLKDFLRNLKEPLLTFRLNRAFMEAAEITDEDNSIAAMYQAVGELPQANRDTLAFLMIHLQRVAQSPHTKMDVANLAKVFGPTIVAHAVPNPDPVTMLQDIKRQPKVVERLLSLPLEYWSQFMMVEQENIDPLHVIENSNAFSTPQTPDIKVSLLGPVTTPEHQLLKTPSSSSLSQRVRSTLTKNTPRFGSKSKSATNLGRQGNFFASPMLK

[5] = test system: Streptococcus sp. 'group A'; experiment: growth inhibition of control SK(-) GAS strain, dose response, counter-screen for streptokinase expression inhibitor project, luminescence, kanamycin, BacTiterGlo, confirmation (AID 1900); format: functional, organism-based
Streptokinase A = molecular target: T4, Streptokinase A (Streptococcus pyogenes serotype M1, UniProt P10520); experiment: S. pyogenes streptokinase expression inhibitors, potency, dose response, plasminogen activation absorbance, OD405 (AID 1914); format: functional, Streptococcus pyogenes M1 GAS;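 further: secreted streptokinase activity via plasminogen activation per viability signal from cell pellet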
T4 sequence (P10520 whole entry): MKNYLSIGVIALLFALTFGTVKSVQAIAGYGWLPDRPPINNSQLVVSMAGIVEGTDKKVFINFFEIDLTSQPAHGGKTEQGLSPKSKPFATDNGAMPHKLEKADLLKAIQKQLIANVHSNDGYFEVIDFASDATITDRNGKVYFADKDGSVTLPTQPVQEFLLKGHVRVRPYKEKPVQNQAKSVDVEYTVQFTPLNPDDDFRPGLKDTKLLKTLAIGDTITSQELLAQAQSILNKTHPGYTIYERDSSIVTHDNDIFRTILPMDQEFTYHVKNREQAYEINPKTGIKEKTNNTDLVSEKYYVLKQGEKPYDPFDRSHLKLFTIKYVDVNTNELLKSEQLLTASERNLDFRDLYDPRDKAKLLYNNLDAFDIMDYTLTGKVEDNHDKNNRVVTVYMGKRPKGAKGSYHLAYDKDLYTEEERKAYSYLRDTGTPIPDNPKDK

Streptococcus = experiment: Group A Streptococcus viability loss, dose response, counter-screen for streptokinase expression inhibitor project, luminescence, BacTiterGlo (AID 1915); format: functional, organism-based;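 further: potency for reduction of bacterial viability or growth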
[6] = molecular target: T5, Replicative DNA helicase DnaB (Mycobacterium tuberculosis, UniProt P9WMR3); experiment: DnaB intein splicing inhibitors, dose response, biochemical, cell-free fluorescence (AID 449749); format: functional
T5 sequence (P9WMR3 whole entry): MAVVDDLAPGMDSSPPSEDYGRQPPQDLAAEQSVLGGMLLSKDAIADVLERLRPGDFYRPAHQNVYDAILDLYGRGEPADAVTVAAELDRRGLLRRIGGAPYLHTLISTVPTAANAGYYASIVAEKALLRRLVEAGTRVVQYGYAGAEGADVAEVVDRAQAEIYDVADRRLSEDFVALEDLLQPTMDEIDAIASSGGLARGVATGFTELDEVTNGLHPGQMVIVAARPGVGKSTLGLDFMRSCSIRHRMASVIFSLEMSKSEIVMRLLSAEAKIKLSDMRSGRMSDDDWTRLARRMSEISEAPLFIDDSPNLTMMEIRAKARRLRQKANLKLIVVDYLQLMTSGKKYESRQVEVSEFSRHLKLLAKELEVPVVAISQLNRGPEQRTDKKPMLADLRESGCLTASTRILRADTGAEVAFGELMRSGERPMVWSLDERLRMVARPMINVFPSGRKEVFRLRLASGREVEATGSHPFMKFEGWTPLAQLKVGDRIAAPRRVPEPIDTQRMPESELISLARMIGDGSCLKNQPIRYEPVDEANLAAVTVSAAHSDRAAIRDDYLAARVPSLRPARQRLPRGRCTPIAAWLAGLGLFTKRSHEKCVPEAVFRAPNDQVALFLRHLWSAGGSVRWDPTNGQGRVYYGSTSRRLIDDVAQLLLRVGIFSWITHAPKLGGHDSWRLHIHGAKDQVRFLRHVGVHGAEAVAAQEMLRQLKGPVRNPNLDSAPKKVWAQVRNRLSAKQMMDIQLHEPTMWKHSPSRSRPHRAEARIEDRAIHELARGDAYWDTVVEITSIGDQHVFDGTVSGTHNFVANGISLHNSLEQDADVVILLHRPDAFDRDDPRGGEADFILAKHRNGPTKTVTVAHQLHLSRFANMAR

Protein RecA = molecular target: T6, Protein RecA (Mycobacterium tuberculosis, UniProt P9WHJ3); experiment: Fluorescence Cell-Free Homogeneous Dose Retest to Identify Inhibitors of RecA-Intein Splicing Activity. [Related pubchem assays (depositor defined):AID2097, AID2223, AID489010, AID492950]; format: functional
T6 sequence (P9WHJ3 whole entry): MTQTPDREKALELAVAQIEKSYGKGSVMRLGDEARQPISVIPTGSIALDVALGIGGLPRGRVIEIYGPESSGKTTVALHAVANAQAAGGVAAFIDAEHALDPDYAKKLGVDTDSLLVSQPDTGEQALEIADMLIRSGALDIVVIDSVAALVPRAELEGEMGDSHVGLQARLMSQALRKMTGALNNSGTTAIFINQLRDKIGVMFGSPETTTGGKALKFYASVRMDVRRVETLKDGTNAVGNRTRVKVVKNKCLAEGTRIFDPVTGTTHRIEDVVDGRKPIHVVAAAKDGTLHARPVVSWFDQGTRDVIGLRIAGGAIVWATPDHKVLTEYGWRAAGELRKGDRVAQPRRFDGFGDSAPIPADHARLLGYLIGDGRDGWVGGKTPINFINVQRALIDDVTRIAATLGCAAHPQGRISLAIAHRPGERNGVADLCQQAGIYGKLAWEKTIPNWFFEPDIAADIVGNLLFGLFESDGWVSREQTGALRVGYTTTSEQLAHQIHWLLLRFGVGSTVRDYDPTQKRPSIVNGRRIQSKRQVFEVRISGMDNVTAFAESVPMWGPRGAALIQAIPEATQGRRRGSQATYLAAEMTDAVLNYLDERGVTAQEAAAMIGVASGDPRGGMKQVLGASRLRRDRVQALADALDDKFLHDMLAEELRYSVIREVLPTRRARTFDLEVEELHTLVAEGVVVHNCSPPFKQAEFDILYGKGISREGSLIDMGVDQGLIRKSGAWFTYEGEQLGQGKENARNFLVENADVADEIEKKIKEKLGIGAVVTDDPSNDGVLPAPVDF

| SMILES | IC50 [2] | EC50 [3] | further results |
| --- | --- | --- | --- |
| Cc1cccc(S(=O)(=O)NCCC(=O)OC(C)C(=O)NC(=O)NC2CCCCC2)c1 (stereo unspecified) |  |  | EC50 [1]: > 260 µM (inactive) |
| COc1ccc(C2c3c(-c4ccccc4O)n[nH]c3C(=O)N2Cc2ccco2)cc1 (stereo unspecified) | > 47.1 µM (inactive) | > 53 µM (inactive) |  |
| O=C(c1ccco1)N(Cc1ccc([N+](=O)[O-])cc1)c1ccc(Br)cc1 |  |  | EC50 [1]: > 260 µM (inactive) |
| Cc1sc2ncnc(Sc3ccccc3C(=O)Nc3ccc(C#N)cc3)c2c1C | > 47.1 µM (inactive) | > 53 µM (inactive) |  |
| COc1ccc(Nc2ccccc2)c(C)c1 | > 47.1 µM (inactive) | > 53 µM (inactive) | IC50 [4]: 44.9 µM (active) |
| CCOc1ccc(N(CC(=O)NCC2CCCO2)C(=O)CCC(=O)Nc2nccs2)cc1 (stereo unspecified) | > 47.1 µM (inactive) | > 53 µM (inactive) |  |
| COc1ccc([N+](=O)[O-])cc1N(CC(=O)NCCCOC(C)C)S(C)(=O)=O | > 47.1 µM (inactive) | > 53 µM (inactive) |  |
| Cc1ccc(Cl)cc1N1CCN(C(=O)Cc2c(C(=O)O)[nH]c3ccc(Cl)cc23)CC1 | > 47.1 µM (inactive) | > 53 µM (inactive) |  |
| CCc1ccc(C2C(C#N)=C(N)C(C#N)(C#N)C3=CCC(C(C)(C)C)CC32)cc1 (stereo unspecified) |  |  | EC50 [5]: 4.85 µM (active); EC50 (Streptokinase A): 5.84 µM (active); EC50 (Streptococcus): > 150 µM (not active); AC50 [6]: > 120 µM (inactive); EC50 (Protein RecA): 3 µM (active) |
| COc1ccc(-c2cc(C(=O)O)nc3ccc4ccccc4c23)cc1OC | > 47.1 µM (inactive) | > 53 µM (inactive) |  |
| CC(NC(=O)C1CCCN1S(=O)(=O)c1cccc2nsnc12)c1ccccc1 (stereo unspecified) | > 47.1 µM (inactive) | > 53 µM (inactive) |  |
| COC(=O)C1=C(C)N(Cc2ccc(C)cc2)C(=O)/C1=C\c1cc(OC)c(OC)c(OC)c1 |  |  | EC50 [1]: 11.6 µM (active) |
| COc1ccc(CN(C(=O)c2ccc(C)cc2)C2CCS(=O)(=O)C2)cc1 (stereo unspecified) | > 47.1 µM (inactive) | > 53 µM (inactive) |  |
| O=C(CSCc1ccccc1)Nc1cc([N+](=O)[O-])ccc1F | > 47.1 µM (inactive) | > 53 µM (inactive) |  |
| Cc1cc2occ(CC(=O)NCc3cccs3)c2cc1C(C)C |  |  | EC50 [1]: > 260 µM (inactive) |
| O=C(COC(=O)CCc1ccc(S(=O)(=O)N2CCOCC2)cc1)Nc1ccccc1OC(F)F | > 47.1 µM (inactive) | > 53 µM (inactive) |  |
| Cc1nnsc1-c1onc(C)c1C(=O)O/N=C/c1ccc(Cl)cc1 | > 47.1 µM (inactive) | > 53 µM (inactive) |  |
| Cc1ncc([N+](=O)[O-])n1CCOC(N)=O [BAMNIDAZOLE] | > 47.1 µM (inactive) | > 53 µM (inactive) |  |

Reference: ChEMBL document CHEMBL1201862, “PubChem BioAssay data set” (2004)
